Patent US10597388B2, “Pyridazinone herbicides” (FMC CORPORATION, priority 2014, dated 2020)

How the values were obtained:
Type in all cases: in vivo
[1] = system: barnyardgrass (Echinochloa crus-galli); test: Test C greenhouse herbicide test, pre- and postemergence
Method in brief: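 Pre- and postemergence greenhouse screen; values are visual control ratings, 0 meaning no effect and 100 complete kill, assigned relative to untreated plants after 13 to 15 d.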

[2] = system: blackgrass (Alopecurus myosuroides); test: Test A greenhouse herbicide test, postemergence
Method in brief: (§1)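 Visual injury score, 0 (no effect) to 100 (complete control), versus untreated controls roughly 10 d after postemergence spray; plants at one- to two-leaf stage, 2 to 10 cm tall, in loam soil and sand, kept in greenhouse.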

[3] = system: galium (catchweed bedstraw, Galium aparine); test: Test A greenhouse herbicide test, postemergence
Method in brief: as §1

[4] = system: pigweed (Amaranthus retroflexus); test: Test A greenhouse herbicide test, pre- and postemergence
Method in brief: (§2)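 Seeds in loam–sand blend received a preemergence directed soil spray; plants at 2–10 cm, one- to two-leaf stage, received postemergence sprays. Compounds in a non-phytotoxic solvent with surfactant. After about 10 d in a greenhouse, injury rated visually versus untreated controls on a 0–100 scale (100 = complete control).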

corn (Zea mays) = test: as above; settings: Postemergence
Method in brief: as §2

kochia (Kochia scoparia) = test: as above
Method in brief: as §2

[5] = system: foxtail, giant (giant foxtail, Setaria faberii); test: as above
Method in brief: as §2

[6] = system: ragweed (common ragweed, Ambrosia elatior); test: as above
Method in brief: as §2

[7] = system: ryegrass, Italian (Italian ryegrass, Lolium multiflorum); test: as above
Method in brief: as §2

[8] = system: wheat (Triticum aestivum); test: as above; settings: Postemergence
Method in brief: as §2

[9] = system: barnyardgrass (Echinochloa crus-galli); test: as above
Method in brief: as §2

[10] = Postemergence, 125 g ai/ha, scale 0 to 100, 0 is no effect, 100 is complete control
[11] = Postemergence, 250 g ai/ha, scale 0 to 100, 0 no effect, 100 complete control, 13 to 15 d
[12] = Preemergence, 31 g ai/ha, scale 0 to 100, 0 is no effect, 100 is complete control
[13] = Preemergence, 62 g ai/ha, scale 0 to 100, 0 is no effect, 100 is complete control
[14] = Preemergence, 125 g ai/ha, scale 0 to 100, 0 is no effect, 100 is complete control
[15] = Preemergence, 250 g ai/ha, scale 0 to 100 (0 no effect, 100 complete control)
[16] = 125 g ai/ha, visual rating after approx. 10 d, 0 to 100 scale (0 no effect, 100 complete control)
[17] = 500 g ai/ha, 0 to 100 scale, 0 is no effect, 100 is complete control
[18] = Postemergence, 125 g ai/ha, visual rating after approx. 10 d, 0 to 100 scale (0 no effect, 100 complete control)
[19] = Postemergence, 500 g ai/ha, 0 to 100 scale, 0 is no effect, 100 is complete control
[20] = Preemergence, 125 g ai/ha, 0 to 100 scale where 0 is no effect and 100 is complete control
[21] = Preemergence, 500 g ai/ha, 0 to 100 scale, 0 no effect, 100 complete control
[22] = Postemergence, 125 g ai/ha, 0 to 100 scale where 0 is no effect and 100 is complete control
[23] = 125 g ai/ha, 0 to 100 scale where 0 is no effect and 100 is complete control
[24] = Postemergence, 31 g ai/ha, scale 0 to 100 (0 no effect, 100 complete control)
[25] = Postemergence, 62 g ai/ha, 0 to 100 scale (0 no effect, 100 complete control)
[26] = 125 g ai/ha, 0 to 100 scale, 0 no effect, 100 complete control
[27] = 500 g ai/ha, visual rating after approx. 10 d, 0 to 100 scale (0 no effect, 100 complete control)
[28] = Postemergence, 125 g ai/ha, 0 to 100 scale, 0 no effect, 100 complete control
[29] = Postemergence, 500 g ai/ha, visual rating after approx. 10 d, 0 to 100 scale (0 no effect, 100 complete control)
[30] = Preemergence, 125 g ai/ha, visual injury rating, 0 to 100 scale (0 no effect, 100 complete control), approx. 10 d
[31] = Preemergence, 500 g ai/ha, 0 to 100 scale where 0 is no effect and 100 is complete control

Compound: CCC(=O)Oc1c(C)nn(C)c(=O)c1-c1c(C)sc2c(C)cc(C)cc12 [Compound 28]
- Barnyardgrass plant response rating ([1]; Postemergence, 31 g ai/ha, 0 to 100 scale (0 no effect, 100 complete control)): 20
- Plant response rating, Barnyardgrass [1, 10]: 35
- Plant response rating, Barnyardgrass [1, 11]: 40
- Plant response rating, Barnyardgrass [1, 12]: 45
- Plant response rating, Barnyardgrass [1, 13]: 75
- Plant response rating, Barnyardgrass [1, 14]: 90
- Barnyardgrass plant response rating [1, 15]: 95
- Barnyardgrass plant response rating ([1]; postemergence, 62 g ai/ha, scale 0 to 100, 0 no effect, 100 complete control): 25
- Plant response rating, Blackgrass [2, 16]: 90
- Blackgrass plant response rating [2, 17]: 90
- Plant response rating, Galium [3, 16]: 100
- Galium plant response rating [3, 17]: 100
- Plant response rating, Pigweed [4, 18]: 90
- Pigweed plant response rating [4, 19]: 90
- Pigweed plant response rating [4, 20]: 100
- Plant response rating, Pigweed [4, 21]: 100
- Plant response rating, Corn (corn (Zea mays); [16]): 0
- Corn plant response rating (corn (Zea mays); [17]): 20
- Plant response rating, Kochia (kochia (Kochia scoparia); [18]): 70
- Kochia plant response rating (kochia (Kochia scoparia); [19]): 90
- Kochia plant response rating (kochia (Kochia scoparia); [20]): 50
- Plant response rating, Kochia (kochia (Kochia scoparia); [21]): 90
- Plant response rating, Foxtail, Giant [5, 18]: 90
- Foxtail, Giant plant response rating [5, 19]: 90
- Foxtail, Giant plant response rating [5, 20]: 100
- Plant response rating, Foxtail, Giant [5, 21]: 100
- Plant response rating, Ragweed [6, 18]: 80
- Ragweed plant response rating [6, 19]: 100
- Ragweed plant response rating [6, 20]: 90
- Plant response rating, Ragweed [6, 21]: 90
- Plant response rating, Ryegrass, Italian [7, 22]: 90
- Ryegrass, Italian plant response rating [7, 19]: 100
- Ryegrass, Italian plant response rating [7, 20]: 100
- Plant response rating, Ryegrass, Italian [7, 21]: 100
- Plant response rating, Wheat [8, 23]: 0
- Wheat plant response rating [8, 17]: 0
- Plant response rating, Barnyardgrass [9, 18]: 80
- Barnyardgrass plant response rating [9, 19]: 90
- Barnyardgrass plant response rating [9, 20]: 90
- Plant response rating, Barnyardgrass [9, 21]: 90

Compound: CC(=O)Oc1c(C)nn(C)c(=O)c1-c1c([N+](=O)[O-])ccc2ccccc12 [Compound 164]
- Plant response rating, Barnyardgrass [1, 24]: 10
- Barnyardgrass plant response rating [1, 25]: 25
- Plant response rating, Barnyardgrass ([1]; Postemergence, 250 g ai/ha, scale 0 to 100, 0 is no effect, 100 is complete control): 35
- Barnyardgrass plant response rating ([1]; postemergence, 125 g ai/ha, scale 0 to 100, 0 no effect, 100 complete control): 30
- Plant response rating, Blackgrass [2, 26]: 20
- Plant response rating, Blackgrass [2, 27]: 40
- Plant response rating, Galium [3, 26]: 80
- Plant response rating, Galium [3, 27]: 100
- Plant response rating, Pigweed [4, 28]: 80
- Plant response rating, Pigweed [4, 29]: 80
- Plant response rating, Pigweed [4, 30]: 80
- Plant response rating, Pigweed [4, 31]: 100
- Plant response rating, Corn (corn (Zea mays); [26]): 0
- Plant response rating, Corn (corn (Zea mays); [27]): 20
- Plant response rating, Kochia (kochia (Kochia scoparia); [28]): 60
- Plant response rating, Kochia (kochia (Kochia scoparia); [29]): 90
- Plant response rating, Kochia (kochia (Kochia scoparia); [30]): 60
- Plant response rating, Kochia (kochia (Kochia scoparia); [31]): 100
- Plant response rating, Foxtail, Giant [5, 28]: 20
- Plant response rating, Foxtail, Giant [5, 29]: 30
- Plant response rating, Foxtail, Giant [5, 30]: 10
- Plant response rating, Foxtail, Giant [5, 31]: 40
- Plant response rating, Ragweed [6, 28]: 70
- Plant response rating, Ragweed [6, 29]: 100
- Plant response rating, Ragweed [6, 30]: 50
- Plant response rating, Ragweed [6, 31]: 90
- Plant response rating, Ryegrass, Italian [7, 28]: 70
- Plant response rating, Ryegrass, Italian [7, 29]: 90
- Plant response rating, Ryegrass, Italian [7, 30]: 60
- Plant response rating, Ryegrass, Italian [7, 31]: 100
- Plant response rating, Wheat [8, 26]: 0
- Plant response rating, Wheat [8, 27]: 0
- Plant response rating, Barnyardgrass [9, 28]: 20
- Plant response rating, Barnyardgrass [9, 29]: 20
- Plant response rating, Barnyardgrass [9, 30]: 10
- Plant response rating, Barnyardgrass [9, 31]: 20

Compound: CCC(=O)Oc1c(C)nn(C)c(=O)c1-c1ccc(Br)c2ccccc12 [Compound 133]
- Plant response rating, Barnyardgrass [1, 24]: 15
- Barnyardgrass plant response rating [1, 25]: 30
- Plant response rating, Barnyardgrass [1, 10]: 45
- Plant response rating, Barnyardgrass [1, 11]: 35
- Plant response rating, Barnyardgrass [1, 12]: 0
- Plant response rating, Barnyardgrass [1, 13]: 40
- Plant response rating, Barnyardgrass [1, 14]: 50
- Barnyardgrass plant response rating [1, 15]: 95
- Plant response rating, Blackgrass [2, 23]: 60
- Plant response rating, Blackgrass [2, 27]: 60
- Plant response rating, Galium [3, 23]: 100
- Plant response rating, Galium [3, 27]: 100
- Plant response rating, Pigweed [4, 22]: 90
- Plant response rating, Pigweed [4, 29]: 100
- Pigweed plant response rating [4, 20]: 80
- Plant response rating, Pigweed [4, 31]: 100
- Plant response rating, Corn (corn (Zea mays); [23]): 10
- Plant response rating, Corn (corn (Zea mays); [27]): 50
- Plant response rating, Kochia (kochia (Kochia scoparia); [22]): 90
- Plant response rating, Kochia (kochia (Kochia scoparia); [29]): 100
- Kochia plant response rating (kochia (Kochia scoparia); [20]): 40
- Plant response rating, Kochia (kochia (Kochia scoparia); [31]): 100
- Plant response rating, Foxtail, Giant [5, 22]: 20
- Plant response rating, Foxtail, Giant [5, 29]: 90
- Foxtail, Giant plant response rating [5, 20]: 40
- Plant response rating, Foxtail, Giant [5, 31]: 70
- Plant response rating, Ragweed [6, 22]: 100
- Plant response rating, Ragweed [6, 29]: 100
- Ragweed plant response rating [6, 20]: 90
- Plant response rating, Ragweed [6, 31]: 100
- Plant response rating, Ryegrass, Italian [7, 22]: 100
- Plant response rating, Ryegrass, Italian [7, 29]: 100
- Ryegrass, Italian plant response rating [7, 20]: 100
- Plant response rating, Ryegrass, Italian [7, 31]: 100
- Plant response rating, Wheat [8, 23]: 20
- Plant response rating, Wheat [8, 27]: 30
- Plant response rating, Barnyardgrass [9, 22]: 20
- Plant response rating, Barnyardgrass [9, 29]: 90
- Barnyardgrass plant response rating [9, 20]: 20
- Plant response rating, Barnyardgrass [9, 31]: 50

Compound: Cc1nn(C)c(=O)c(-c2cccc3ccc(C#N)cc23)c1O [Compound 127]
- Plant response rating, Barnyardgrass [1, 24]: 10
- Barnyardgrass plant response rating [1, 25]: 20
- Plant response rating, Barnyardgrass [1, 10]: 25
- Plant response rating, Barnyardgrass [1, 11]: 25
- Plant response rating, Blackgrass [2, 23]: 20
- Plant response rating, Blackgrass [2, 27]: 50
- Plant response rating, Galium [3, 23]: 90
- Plant response rating, Galium [3, 27]: 100
- Plant response rating, Pigweed [4, 22]: 90
- Plant response rating, Pigweed [4, 29]: 100
- Pigweed plant response rating [4, 20]: 70
- Plant response rating, Pigweed [4, 31]: 100
- Plant response rating, Corn (corn (Zea mays); [23]): 0
- Plant response rating, Corn (corn (Zea mays); [27]): 10
- Plant response rating, Kochia (kochia (Kochia scoparia); [22]): 70
- Plant response rating, Kochia (kochia (Kochia scoparia); [29]): 80
- Kochia plant response rating (kochia (Kochia scoparia); [20]): 0
- Plant response rating, Kochia (kochia (Kochia scoparia); [31]): 90
- Plant response rating, Foxtail, Giant [5, 22]: 10
- Plant response rating, Foxtail, Giant [5, 29]: 60
- Foxtail, Giant plant response rating [5, 20]: 50
- Plant response rating, Foxtail, Giant [5, 31]: 60
- Plant response rating, Ragweed [6, 22]: 60
- Plant response rating, Ragweed [6, 29]: 80
- Ragweed plant response rating [6, 20]: 30
- Plant response rating, Ragweed [6, 31]: 70
- Plant response rating, Ryegrass, Italian [7, 22]: 80
- Plant response rating, Ryegrass, Italian [7, 29]: 90
- Ryegrass, Italian plant response rating [7, 20]: 60
- Plant response rating, Ryegrass, Italian [7, 31]: 90
- Plant response rating, Wheat [8, 23]: 0
- Plant response rating, Wheat [8, 27]: 20
- Plant response rating, Barnyardgrass [9, 22]: 10
- Plant response rating, Barnyardgrass [9, 29]: 50
- Barnyardgrass plant response rating [9, 20]: 10
- Plant response rating, Barnyardgrass [9, 31]: 40
